Assay results reported in paper PMC12415691 (RSC Advances, 2025).

Biological target: T1, rabbit ALOX15 (Oryctolagus cuniculus, UniProt P12530)
T1 sequence (P12530 1-663): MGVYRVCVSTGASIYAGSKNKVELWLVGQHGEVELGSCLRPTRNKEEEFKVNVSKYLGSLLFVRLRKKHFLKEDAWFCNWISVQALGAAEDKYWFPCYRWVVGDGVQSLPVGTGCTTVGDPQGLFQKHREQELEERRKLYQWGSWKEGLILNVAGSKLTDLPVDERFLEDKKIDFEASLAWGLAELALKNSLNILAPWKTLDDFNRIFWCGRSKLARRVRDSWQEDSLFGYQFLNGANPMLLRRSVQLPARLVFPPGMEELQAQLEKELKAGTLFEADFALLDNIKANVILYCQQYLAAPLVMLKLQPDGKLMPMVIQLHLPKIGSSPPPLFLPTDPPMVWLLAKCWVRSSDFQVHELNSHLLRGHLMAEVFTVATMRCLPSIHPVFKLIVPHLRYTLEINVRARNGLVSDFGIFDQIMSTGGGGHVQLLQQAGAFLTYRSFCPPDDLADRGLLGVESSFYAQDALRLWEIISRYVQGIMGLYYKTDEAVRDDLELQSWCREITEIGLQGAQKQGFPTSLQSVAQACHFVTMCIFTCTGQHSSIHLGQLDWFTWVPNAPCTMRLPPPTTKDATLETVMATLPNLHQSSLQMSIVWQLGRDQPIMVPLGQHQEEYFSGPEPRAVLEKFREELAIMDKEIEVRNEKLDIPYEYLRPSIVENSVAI
Experiment: Kinetic measurements of LA/AA oxygenation with inhibitor
Format: biochemical
Details: best fit of kinetic data

mode of inhibition of AA oxygenation (AA as substrate): uncompetitive mode of inhibition
mode of inhibition of LA oxygenation (LA as substrate): uncompetitive mode of inhibition
SMILES: CCCCCCCCOC(=O)NS(=O)(=O)Nc1ccc(-c2cc3ccccc3[nH]2)cc1OC [compound 3, Octyl (N-(4-(1H-indol-2-yl)-2-methoxyphenyl)sulfamoyl)-carbamate]
